Source: patent publication US20240016788A1, “PHARMACEUTICAL COMPOSITION FOR PREVENTING OR TREATING DIABETIC AND POSTMENOPAUSAL OSTEOPOROSIS, CONTAINING ADIPORON” (PnP Biopharm Co., Ltd., priority 2020, published 2024)

Assays:
Assay type in all cases: in vivo
[1] = system: type 2 diabetic db/db mice; test: Serum ACP5/TRAP, osteocalcin and urine deoxypyridinoline by ELISA, db/db mice; conditions: adiporon 30 mg/kg/day, 4 weeks
Description: A leptin receptor-defective type 2 diabetic animal model (db/db mice) and a normal control group (db/m mice) were used, and the experiment was performed by dividing into 4 groups as follows: non-diabetic control group (dm cont, n=8), non-diabetic adiporon treatment group (dm+AdipoR, n=8), diabetic control group (db cont, n=8) and diabetic adiporon treatment group (db+AdipoR, n=8). The control group was fed a normal diet, and the adiporon treatment group was fed a diet comprising adiporon (30 mg/kg/day) for 4 weeks from 16 weeks of age. During the experiment, body weight was measured every week, fasting blood glucose was measured using an Accu-Chek meter (Roche Diagnostics, St. Louis, MO) every 2 weeks after blood was collected from the tail vein, and glycated hemoglobin (HbA1c) was measured every 4 weeks using a […] automatic analyzer (Bayer healthcare LLC, IN) after blood was collected from the tail vein. The temperature and humidity of the breeding room were maintained at 20˜25° C. and 50˜60%, respectively, and the lights were turned on and off at 12-hour intervals. In both experiments, blood collected from each mouse was allowed to stand at room temperature for 30 minutes, and then centrifuged at 3000 rpm for 15 minutes to obtain serum. Blood levels of tartrate-resistant acid phosphatase (TRAP/ACP5) and osterocalcin concentration were measured by ELISA. In addition, 8-hydroxy-deoxyguanosine, a DNA damage marker caused by oxidative stress, and isoprostane, a marker of oxidative stress caused by lipid peroxidation caused by free fatty acids, and deoxypyridinoline (DPP), which indicates the function of osteoclasts, were measured in 24-hour urine concentrations by ELISA method.

[2] = system: type 2 diabetic db/db mice; test: Immunofluorescence staining and western blot of bone tissue, db/db mice; conditions: adiporon 30 mg/kg/day, 4 weeks
Description: A leptin receptor-defective type 2 diabetic animal model (db/db mice) and a normal control group (db/m mice) were used, and the experiment was performed by dividing into 4 groups as follows: non-diabetic control group (dm cont, n=8), non-diabetic adiporon treatment group (dm+AdipoR, n=8), diabetic control group (db cont, n=8) and diabetic adiporon treatment group (db+AdipoR, n=8).
The control group was fed a normal diet, and the adiporon treatment group was fed a diet comprising adiporon (30 mg/kg/day) for 4 weeks from 16 weeks of age. During the experiment, body weight was measured every week, fasting blood glucose was measured using an Accu-Chek meter (Roche Diagnostics, St. Louis, MO) every 2 weeks after blood was collected from the tail vein, and glycated hemoglobin (HbA1c) was measured every 4 weeks using a […] automatic analyzer (Bayer healthcare LLC, IN) after blood was collected from the tail vein. The temperature and humidity of the breeding room were maintained at 20˜25° C. and 50˜60%, respectively, and the lights were turned on and off at 12-hour intervals.
After removing tissues of the femur and L5 lumbar vertebrae, some of them were fixed in 10% formalin for immunostaining and decalcified. Thereafter, after neutralization with 0.5M Phosphate buffer (pH 7.4), washing, and embedding in paraffin. Tissue sections were cut to a thickness of 5 μm, and hematoxylin and eosin staining (H&E staining), trichrome staining, and Safranin O staining were performed. In bone tissue, double immunofluorescence staining method was performed using anti-adiponectin receptor 1/2 antibody, anti-perilipin-1 antibody, anti-RANKL antibody, anti-TNF-α antibody, and ApopTag Fluorescein In Situ Apoptosis Detection Kit (Chemicon International, Temecula, CA) and expression was observed using a confocal microscope.
(§1) Protein was extracted using Pro-Prep Protein Extraction Solution (Intron Biotechnology, Gyeonggi-Do, Korea), and SDS-PAGE (sodium dodecyl sulfate-polyacrylamide gel electrophoresis) was performed. The separated protein was transferred to a nitrocellulose membrane (Amersham Co., Buckinghamshire, England) and treated with Tris buffered saline (in TBS-T: 0.1% Tween-20 in Tris buffer saline, pH 7.5) containing 3% skim milk. After blocking for an hour, the blots were reacted in adiponectin receptor 1/2, total AMPK, phospho-Thr172AMPK, PGC-1α, Nrf-2, SOD1/2, NQO1, HO-1, NOX4, NF-κB and β-actin primary antibody solution, washing, reacting with a secondary antibody against each primary antibody, and then photosensitizing through ECL (Pierce, Rockford IL) to confirm the band. The expression level of each protein was normalized according to β-actin.

[3] = system: ovariectomized C57BL/6 mice; test: Western blot of bone tissue, ovariectomized mice; conditions: for Decreased expression of adiponectin-receptor 1/2 (western blot): 6 weeks
Description: 7 weeks after ovariectomization or sham surgery of 7-week-old C57BL/6 mice, normal feed group (adiporon non-administered group; control group) administration group, 2.5 mg/kg day or 25 mg/kg day, respectively Feed comprising adiporon was consumed for 6 weeks from 14 weeks of age. Body weight was measured every week during the experiment period, and the experiment was conducted after 6 weeks of administration.
as §1

[4] = ilium (femur), adiporon 2.5 or 25 mg/kg day, dose not distinguished
[5] = vertebrae (lumbar vertebrae 5), adiporon 2.5 or 25 mg/kg day, dose not distinguished

Cl.O=C(COc1ccc(C(=O)c2ccccc2)cc1)NC1CCN(Cc2ccccc2)CC1 [adiporon]
Decreased serum ACP5/TRAP concentration ([1]; ELISA): restored
Decreased serum osteocalcin concentration ([1]; ELISA): restored
Increased concentration of deoxypyridinoline in urine ([1]; P<0.001): reversed
Activation of adiponectin-receptor 1-AMPK ([2]; ilium (femur), db/db mice): increased
Decreased expression of adiponectin-receptor 1/2 (double immunofluorescence staining) ([2]; ilium (femur), db/db mice): restored
Expression of PGC1α ([2]; ilium (femur), db/db mice): increased
Expression of adiponectin-receptor 2-PPARα ([2]; ilium (femur), db/db mice): increased
Expression of antioxidant enzymes (Nrf2, NQO1, HO-1, SOD1, SOD2) ([2]; ilium (femur), db/db mice): normalized
Expression of oxidative stress markers (NOX4, NFkB) ([2]; ilium (femur), db/db mice): normalized
Increase in apoptosis (TUNEL staining-positive) ([2]; ilium (femur), db/db mice): restored
Increase in inflammatory response (TNF-α) ([2]; ilium (femur), db/db mice): restored
Increase of adipocytes (perilipin-1 immunofluorescent staining) ([2]; ilium (femur), db/db mice): restored
Increased expression of RANKL ([2]; ilium (femur), db/db mice): restored
Activation of adiponectin-receptor 1-AMPK ([2]; lumbar vertebrae 5, db/db mice): increased
Decreased expression of adiponectin-receptor 1/2 (double immunofluorescence staining) ([2]; lumbar vertebrae 5, db/db mice): reversed
Expression of PGC1α ([2]; lumbar vertebrae 5, db/db mice): increased
Expression of adiponectin-receptor 2-PPARα ([2]; lumbar vertebrae 5, db/db mice): increased
Expression of antioxidant enzymes (Nrf2, NQO1, HO-1, SOD1, SOD2) ([2]; lumbar vertebrae 5, db/db mice): normalized
Expression of oxidative stress markers (NOX4, NFkB) ([2]; lumbar vertebrae 5, db/db mice): normalized
Increase in apoptosis (TUNEL staining-positive) ([2]; lumbar vertebrae 5, db/db mice): restored
Increase in inflammatory response (TNF-α) ([2]; lumbar vertebrae 5, db/db mice): restored
Increase of adipocytes (perilipin-1 immunofluorescent staining) ([2]; lumbar vertebrae 5, db/db mice): restored
Increased expression of RANKL ([2]; lumbar vertebrae 5, db/db mice): restored
Decreased expression of adiponectin-receptor 1/2 (western blot) ([3]; ilium (femur), adiporon 2.5 mg/kg day): restored
Decreased expression of adiponectin-receptor 1/2 (western blot) ([3]; ilium (femur), adiporon 25 mg/kg day): restored
Activation of adiponectin-receptor 1-AMPK [3, 4]: increased
Expression of PGC-1α [3, 4]: increased
Expression of adiponectin-receptor 2-PPARα [3, 4]: increased
Decreased expression of adiponectin-receptor 1/2 (western blot) ([3]; vertebrae (lumbar vertebrae 5), adiporon 2.5 mg/kg day): restored
Decreased expression of adiponectin-receptor 1/2 (western blot) ([3]; vertebrae (lumbar vertebrae 5), adiporon 25 mg/kg day): restored
Activation of adiponectin-receptor 1-AMPK [3, 5]: increased
Expression of PGC1α [3, 5]: increased
Expression of adiponectin-receptor 2-PPARα [3, 5]: increased
